Reference: patent US12497359B2, “Acrylamide derivatives” (NRG Therapeutics Ltd, priority 2020, dated 2025)
≈ marks a conversion by molar mass, not a printed value.

Key:
mPTP = mPTP activity assay in isolated rat liver mitochondria (Ca2+ retention, Fluo5N, FLIPR); type: biochemical; conditions: for mPTP Rat liver pIC50*: isolated rat liver mitochondria, average value from multiple experiments (n ≥ 2)
Text: Pharmacological inhibition or modulation of the mPTP can be measured in well characterised ‘Ca^2+ retention’ assays performed in isolated mitochondria. In vitro, isolated mitochondria rapidly sequester exogenous Ca^2+ until the intramitochondrial Ca^2+ concentration reaches the threshold for mPTP activation. Once the pore is activated, mitochondrial integrity is compromised and the stored Ca^2+ is released. The distribution of Ca^2+ between extra- and intra-mitochondrial compartments can be measured in real time with the use of membrane-impermeant Ca^2+ sensitive fluorescent dyes. Depending on the configuration of the assay, inhibition or modulation of the mPTP either delays the opening of the pore or increases the concentration of Ca^2+ required to induce mPTP opening.
mPTP activity was measured in mitochondria freshly isolated from female Sprague Dawley (250 to 300 gram) rat livers using the following method. Cervical dislocation was performed on the rat. The liver was then perfused in-situ with ˜40 ml cold Dulbecco's Phosphate Buffered Saline (DPBS) prior to dissection and transferred into 30 ml Isolation Buffer (250 mM Sucrose, 10 mM KCl, 1 mM EGTA, 1 mM EDTA, 25 mM HEPES, adjusted to pH 7.5 with 1 M NaOH). Each lobe of the liver was then removed from the buffer, minced using tweezers and a scalpel into ˜5 mm pieces then transferred into a 50 ml Potterton dounce homogenization tube on ice containing 30 ml ice-cold centrifugation buffer (300 mM Trehalose, 25 mM HEPES, 1 mM EGTA, 1 mM EDTA, 10 mM KCl, adjusted to pH 7.5 with 1 M NaOH and supplemented with 0.1% bovine serum albumin (BSA) and complete protease inhibitor cocktail (one tablet of inhibitor per 50 mls of buffer). Homogenisation was carried out using a teflon pestle at 1800 rpm. The slurry was centrifuged at 800 g for 10 min at 4° C., then the supernatant centrifuged at 10,000 g for 10 min. The pellet was washed once with FLIPR assay buffer (75 mM Mannitol, 25 mM Sucrose, 5 mM Potassium Phosphate Monobasic, 20 mM Tris base, 100 mM KCl, 0.1% BSA adjusted to pH 7.4 with 5 M HCl) centrifuged again, then resuspended in FLIPR assay buffer to a concentration of 8.8 mg/ml protein.
Test compounds (10 mM stock in DMSO) were serially diluted in DMSO in half log steps to generate 10 test concentrations (final concentrations in assay 30 μM to 1 nM). An intermediate dilution of 5 μl DMSO samples into 247 μl FLIPR assay buffer was carried out prior to transfer of 5 μl into duplicate wells of a 384 well polypropylene assay plate. Control wells were 0.5% (v/v) DMSO and 5 μM cyclosporin A.
A stock mitochondria/Fluo5N assay solution was prepared in 5.6 ml FLIPR assay buffer (at RT) supplemented with succinate disodium salt (10 mM), rotenone (1 μM), Fluo5N pentapotassium salt (2 μM) and 1 ml mitochondria suspension, then transferred (15 μl) into the assay plate containing test compounds and incubated for 10 min at RT. Assay plates were then transferred to a FLIPR Tetra plate reader (Molecular Devices). Dye fluorescence was then measured every 3 sec for a total of 10 min. After 12 sec, a 2.5 μl bolus of CaCl2 (75 μM) was added from a source plate containing 675 μM CaCl2 in FLIPR assay buffer. IC50 values for test compounds were calculated using the fluorescence value collected at the 10 min timepoint with % inhibition calculated using the DMSO control and cyclosporin A values as […] respectively.

PBS solubility = type: physicochemical; conditions: aqueous buffer, kinetic from dmso stock; PBS pH 7.4, 2 hr at 25° C.
Experimental: (§1) Test compounds were prepared as 10 mM stocks in DMSO and 15 μl samples transferred in duplicate into 1.5 mL glass flat bottom vials (BioTech Solutions). Fasted state simulated intestinal fluid (FaSSIF) or PBS (pH 7.4) was added to each vial to final volume of 500 μl. One PTFE encapsulated stir stick (V&P Scientific) was placed in each vial before sealing with PTFE/SIL plugs (BioTech Solutions). Vials were shaken at 1100 rpm for 2 hr at 25° C. Samples were then filtered through MultiScreen Solvinert filter plates (Millipore) via vacuum filtration. Aliquots of filtrate (5 μl) plus 5 μl DMSO were diluted in 490 μl 50% acetonitrile in water containing internal standard. The filtrate was analysed and quantified against a standard of known concentration using LC-MS/MS. Solubility values of the test compound and control compound were calculated as follows: [Sample]=(Area ratiosample*INJ VOL STD*DFsample*[STD])/(Area ratio STD*INJ VOLsample).

[1] = Microsomal clearance assay, rat liver microsomes; type: in vitro ADME; conditions: average value from two experiments, read-out: Rat liver microsomes intrinsic clearance (CLint)
Experimental: The microsomal stability of test compounds was evaluated using rat liver microsomes (BioIVT) with and without the cofactors nicotinamide adenine dinucleotide phosphate (NADPH) and uridine-diphosphate-glucuronic acid (UDPGA). Reactions were performed in a final volume of 250 μl pre-warmed (37° C.) 100 mM phosphate buffer containing 5 mM MgCl2, 0.025 mg/ml alamethicin, and 0.5 mg/ml rat liver microsomes. NADPH and UDPGA were included at 1 mM and 2 mM respectively, where appropriate. Reactions were started with the addition of 1 μM (final concentration) test compound. Verapamil was used as the positive control. Solutions were incubated in a water bath at 37° C. and aliquots collected at 0.5, 5, 15, 30 and 60 min. Reactions were stopped by the addition of 5 volumes of cold acetonitrile with internal standards (200 nM caffeine and 100 nM tolbutamide). Samples were centrifuged at 3220 g for 40 min. An aliquot of supernatant was diluted 1:1 In ultra-pure H20, then used for LC-MS/MS analysis. Peak areas were determined from extracted ion chromatograms. The slope value, k, was determined by linear regression of the natural logarithm of the remaining percentage of the parent drug vs. incubation time curve. The in vitro half-life (in vitro t1/2) was determined from the slope value: in vitro t1/2=0.693/k. Conversion of the in vitro t1/2 (min) into the in vitro intrinsic clearance (in vitro CLint, in μL/min/mg protein) was done using the following equation (mean of duplicate determinations): in vitro Clint=(0.693/t1/2)*(Vol of incubation (μl)/amount of protein (mg)).

[2] = Hepatocyte clearance assay, human; type: in vitro ADME; conditions: cryopreserved primary human hepatocytes, average value from two experiments, read-out: Human heps intrinsic clearance (CLint)
Experimental: (§2) In vitro clearance studies were performed in primary rat and human hepatocytes (BioIVT). Vials of cryopreserved rat or human hepatocytes were thawed in a 37° C. water bath for 2 min. Cells were transferred into thawing medium (Williams' Medium E containing 30% Percoll, 1× GlutaMAX-1, 15 mM HEPES, 5% fetal bovine serum (FBS), 4 μg/ml insulin, 1 μM dexamethasone), centrifuged at 100 g for 10 min then resuspended in culture medium (Leibovitz's L-15 Medium) at a concentration of 0.5×10^6 viable cells/mL (number of viable cells assessed using AO/PI staining). Hepatocytes (198 μL) were transferred into wells of a 96-well non-coated plate and placed in a 37° C. incubator for 10 min. Test compound solutions were prepared from 10 mM stocks in DMSO, diluted to 100 μM in 50% (v/v in water) acetonitrile. Test compound samples (2 μl) were added to each well of hepatocytes and incubated at 37° C. Samples (25 μl) were collected at t=0, 15, 30, […] and 120 min, mixed with 6 volumes (150 μl) of acetonitrile containing internal standard (100 nM alprazolam, 200 nM caffeine and 100 nM tolbutamide), vortexed for 5 min and centrifuged for 45 min at 3220 g. An aliquot of supernatant (100 μL) was diluted with 100 μL ultra-pure water, and the mixture was used for LC/MS/MS analysis. All incubations were performed in duplicate. Peak areas were determined from extracted ion chromatograms. The slope value, k, was determined by linear regression of the natural logarithm of the remaining percentage of the parent drug vs. incubation time curve. The in vitro half-life (in vitro t1/2) was determined from the slope value: in vitro t1/2=0.693/k. Conversion of the in vitro t1/2 (in min) into the in vitro intrinsic clearance (in vitro CLint, in μL/min/1×10^6 cells) was done using the following equation (mean of duplicate determinations): • in vitro CLint=kV/N • V=incubation volume (0.2 mL) • N=number of hepatocytes per well (0.1×10^6 cells). Microsomal Clearance Assay

[3] = Hepatocyte clearance assay, rat; type: in vitro ADME; conditions: cryopreserved primary rat hepatocytes, average value from two experiments, read-out: Rat heps intrinsic clearance (CLint)
Experimental: as §2

FaSSIF solubility = type: physicochemical; conditions: kinetic from dmso stock, Fasted state simulated intestinal fluid, 2 hr at 25° C.
Experimental: as §1

Compound: O=C(/C=C/c1ccc2cn[nH]c2c1)NC1CCc2cc(F)ccc21 (centres unmarked) [Example 7, (E)-N-(5-fluoro-2,3-dihydro-1H-inden-1-yl)-3-(1H-indazol-6-yl)acrylamide]
- mPTP Rat liver pIC50* (mPTP): 7.2
- solubility at 2 h (PBS solubility): 4.1 µM (≈ 1.32 µg/mL)
- microsomal CLint at 1 µM [1]: 38 µL/min/mg

Compound: Cc1ccc(F)c(C)c1NC(=O)/C=C/c1ccc2cn[nH]c2c1 [Example 28, (E)-N-(3-fluoro-2,6-dimethylphenyl)-3-(1H-indazol-6-yl)acrylamide]
- activity in the rat liver mitochondria assay (mPTP; comparison among Example compounds, in words): highest activity
- mPTP Rat liver pIC50* (mPTP): 8.1
- hepatocyte CLint at 1 µM [2]: 21 µL/min/1e6 cells

Compound: C[C@@H]1CCCC[C@H]1NC(=O)/C=C/c1ccc2cn[nH]c2c1 (racemic) [Example 4, (E)-3-(1H-indazol-6-yl)-N-((1R,2R)-2-methylcyclohexyl)acrylamide]
- mPTP Rat liver pIC50* (mPTP): 6.3
- solubility at 2 h (PBS solubility): 5.2 µM (≈ 1.47 µg/mL)
- hepatocyte CLint at 1 µM [3]: 68 µL/min/1e6 cells
- microsomal CLint at 1 µM [1]: 39 µL/min/mg

Compound: O=C(/C=C/c1ccc2cn[nH]c2c1)NC1CCc2cccc(F)c21 (centres unmarked) [Example 5, (E)-N-(7-fluoro-2,3-dihydro-1H-inden-1-yl)-3-(1H-indazol-6-yl)acrylamide]
- mPTP Rat liver pIC50* (mPTP): 6.3
- solubility at 2 h (PBS solubility): 2.5 µM (≈ 0.803 µg/mL)
- microsomal CLint at 1 µM [1]: 55 µL/min/mg

Compound: O=C(/C=C/c1ccc2cn[nH]c2c1F)NC1CCc2ccccc21 (centres unmarked) [Example 9, (E)-N-(2,3-dihydro-1H-inden-1-yl)-3-(7-fluoro-1H-indazol-6-yl)acrylamide]
- mPTP Rat liver pIC50* (mPTP): 7.2
- solubility at 2 h (PBS solubility): 0.4 µM (≈ 0.129 µg/mL)
- solubility at 2 h (FaSSIF solubility): 11 µM (≈ 3.53 µg/mL)
- hepatocyte CLint at 1 µM [3]: 61 µL/min/1e6 cells

Compound: O=C(/C=C/c1ccc2cn[nH]c2c1)NC1CCc2c(F)cccc21 (centres unmarked) [Example 8, (E)-N-(4-fluoro-2,3-dihydro-1H-inden-1-yl)-3-(1H-indazol-6-yl)acrylamide]
- mPTP Rat liver pIC50* (mPTP): 6.9
- solubility at 2 h (PBS solubility): 6.3 µM (≈ 2.02 µg/mL)
- microsomal CLint at 1 µM [1]: 41 µL/min/mg

Compound: Cc1c(F)cccc1NC(=O)/C=C/c1cnc2cn[nH]c2c1 [Example 34, (E)-N-(3-fluoro-2-methylphenyl)-3-(1H-pyrazolo[4,3-b]pyridin-6-yl)acrylamide]
- mPTP Rat liver pIC50* (mPTP): 6.0
- solubility at 2 h (PBS solubility): 13 µM (≈ 3.85 µg/mL)
- microsomal CLint at 1 µM [1]: 51 µL/min/mg

Compound: O=C(/C=C/c1ccc2cn[nH]c2c1)NC1CCc2ccccc21 (centres unmarked) [Example 2, (E)-N-(2,3-dihydro-1H-inden-1-yl)-3-(1H-indazol-6-yl)acrylamide]
- mPTP Rat liver pIC50* (mPTP): 7.6
- solubility at 2 h (PBS solubility): 10 µM (≈ 3.03 µg/mL)
- hepatocyte CLint at 1 µM [3]: 33 µL/min/1e6 cells
- microsomal CLint at 1 µM [1]: 59 µL/min/mg
- hepatocyte CLint at 1 µM [2]: 14 µL/min/1e6 cells

Compound: O=C(/C=C/c1ccc2cn[nH]c2c1)Nc1ccccc1CN1CC(F)C1 [Example 31, (E)-N-(2-((3-fluoroazetidin-1-yl)methyl)phenyl)-3-(1H-indazol-6-yl)acrylamide]
- mPTP Rat liver pIC50* (mPTP): 6.3
- solubility at 2 h (PBS solubility): 59 µM (≈ 20.7 µg/mL)
- hepatocyte CLint at 1 µM [3]: 101 µL/min/1e6 cells
- hepatocyte CLint at 1 µM [2]: 36 µL/min/1e6 cells

Compound: O=C(/C=C/c1cc(Cl)c2cn[nH]c2c1)NC1CCc2ccccc21 (centres unmarked) [Example 13, (E)-3-(4-chloro-1H-indazol-6-yl)-N-(2,3-dihydro-1H-inden-1-yl)acrylamide]
- mPTP Rat liver pIC50* (mPTP): 7.0
- solubility at 2 h (FaSSIF solubility): 4 µM (≈ 1.35 µg/mL)
- hepatocyte CLint at 1 µM [3]: 95 µL/min/1e6 cells

Compound: Cc1c(F)cccc1NC(=O)/C=C/c1ccc2cn[nH]c2c1C [Example 1, (E)-N-(3-fluoro-2-methylphenyl)-3-(7-methyl-1H-indazol-6-yl)acrylamide]
- mPTP Rat liver pIC50* (mPTP): 7.1
- solubility at 2 h (PBS solubility): 0.11 µM (≈ 0.034 µg/mL)
- solubility at 2 h (FaSSIF solubility): 2 µM (≈ 0.619 µg/mL)
- microsomal CLint at 1 µM [1]: 118 µL/min/mg

Compound: O=C(/C=C/c1cc(F)c2cn[nH]c2c1)NC1CCc2ccccc21 (centres unmarked) [Example 11, (E)-N-(2,3-dihydro-1H-inden-1-yl)-3-(4-fluoro-1H-indazol-6-yl)acrylamide]
- mPTP Rat liver pIC50* (mPTP): 7.3
- solubility at 2 h (PBS solubility): 1.4 µM (≈ 0.45 µg/mL)
- hepatocyte CLint at 1 µM [3]: 45 µL/min/1e6 cells
- microsomal CLint at 1 µM [1]: 58 µL/min/mg
- hepatocyte CLint at 1 µM [2]: 26.7 µL/min/1e6 cells
